Consider three molecules from patent EP4732840A1, “AGENT FOR SUPPRESSING PROLIFERATION OF BACTERIA, AND COSMETIC, QUASI-DRUG, AND PHARMACEUTICAL COMPOSITION CONTAINING SAID AGENT, AND METHOD FOR SUPPRESSING PROLIFERATION OF BACTERIA” (Toyo Sugar Refining Co., Ltd., priority 2023, dated 2024).

The conditions of data set [1]: reported in Patent Literature 2; cited from earlier work.
The next data set relates to Escherichia coli. The following applies: viable count after 24 hours or 48 hours exposure; Patent Literature 2; cited from earlier work.
In data set [2] the test system is Staphylococcus aureus. The following applies: viable count after 24 hours or 48 hours exposure; Patent Literature 2; cited from earlier work.
For another data set, the system named is Pseudomonas aeruginosa. As to conditions: viable count after 24 hours or 48 hours exposure; Patent Literature 2; cited from earlier work.
Another data set concerns Pseudomonas cepacia. As to conditions: viable count after 24 hours or 48 hours exposure; Patent Literature 2; cited from earlier work.
Data set [3] relates to Staphylococcus epidermidis. The following applies: viable count after 24 hours or 48 hours exposure; Patent Literature 2; cited from earlier work.
The subject of data set [4] is Corynebacterium minutissimum. The following applies: viable count after 24 hours or 48 hours exposure; Patent Literature 2; cited from earlier work.
For the next data set, the system named is Propionibacterium acnes. Nature of the data set: Proliferation test with paper disc on agar plate (growth inhibition zone). The format is cell-based, Propionibacterium acnes (JCM 6425). The following applies: test substance (COSARTE-2G or glycerin) diluted to 40% by mass, 50 µL on paper disc; GAM agar, anaerobic, 48 hours. The procedure:
(§1) As glyceryl glucoside, COSARTE-2G (manufactured by Toyo Sugar Refining Co., Ltd.) was diluted with ion-exchanged water such that COSARTE-2G was 40% by mass. Further, as a positive control, BD (Sensi-Disc Tetracycline 30, Antimicrobial Susceptibility Test Kit, manufactured by Nippon Becton Dickinson Company, Ltd.) was used. As a control, glycerin (manufactured by Nacalai Tesque Inc.) was diluted with ion-exchanged water to be 40% by mass.
Propionibacterium acnes (JCM 6425) was used as a representative strain of Propionibacterium acnes. A Propionibacterium acnes strain was added to GAM liquid medium and pre-cultured at 35°C under anaerobic conditions using an AnaeroPack.
(§2) GAM agar plates and BHI agar plates were prepared. Pre-cultured Propionibacterium acnes, Streptococcus mutans, and Staphylococcus aureus strains in the logarithmic growth phase were suspended in liquid medium to a concentration of 1 × 10^7 cells/mL, and 50 µL of this suspension was taken and spread onto each agar plate medium using a glass spreader.
(§3) Each test substance was sterilized by filtration using a membrane filter, and then 50 µL was impregnated into a sterilized paper disc. […]
(§4) The effect of inhibiting the proliferation of bacteria was determined by the presence or absence and size of the growth inhibition zone around the paper disc.

The next data set relates to Streptococcus mutans. The description is as above. The format is cell-based, Streptococcus mutans (JCM 5705). The following applies: test substance (COSARTE-2G or glycerin) diluted to 40% by mass, 50 µL on paper disc; BHI agar, 48 hours. The procedure: as §1
Streptococcus mutans (JCM 5705) was used as a representative strain of Streptococcus mutans. A Streptococcus mutans strain was added to BHI liquid medium and pre-cultured at 35°C.
as §2
Each test substance was sterilized by filtration using a membrane filter, and then 50 µL was impregnated into a sterilized paper disc. A paper disk was aseptically placed on an agar plate medium, and cultured for 48 hours under conditions suitable for each bacterial strain.
as §4

The test system of data set [5] is Staphylococcus aureus. Described as above. As to conditions: test substance (COSARTE-2G or glycerin) diluted to 40% by mass, 50 µL on paper disc; BHI agar, 48 hours. It is filed as cell-based, Staphylococcus aureus (NBRC 13276). The method, then:
as §1
Staphylococcus aureus (NBRC 13276) was used as a representative strain of Staphylococcus aureus. A Staphylococcus aureus strain was added to BHI liquid medium and pre-cultured at 37°C.
as §2, §3, §4

In the next data set the test system is Lactobacillus crispatus. Nature of the data set: Bacterial proliferation test (turbidity, absorbance at 600 nm). It is filed as cell-based, Lactobacillus crispatus (ATCC 33820). The following applies: C-mo 2G at final concentrations of 0.5%, 1.0%, 2.0% in medium; 1 culture day, 37°C, 5%CO2; n = 3. The source says:
(§5) C-mo2G (manufactured by Toyo Sugar Refining Co., Ltd.) was used as glyceryl glucoside. Furthermore, as a positive control, penicillin-streptomycin (manufactured by FUJIFILM Wako Pure Chemical Corporation, No. 168-23191) was used. Sterile water was used as a control.
(§6) Bacteria and media shown in Table 1 were used, and cultured under the conditions in Table 1.
(§7) As a GAM semi-fluid high layer medium, NO.05424 manufactured by NISSUI PHARMACEUTICAL CO., LTD. was used.
(§8) The number of culture days was set to such a number of days that bacterial proliferation could be visually confirmed in the control.
(§9) Each bacterium in which a frozen stock (15% (vol/vol) glycerin was added to the medium) was inoculated into 9 mL of the medium, and culture was started. After culturing until reaching the logarithmic growth phase, the medium was well stirred to make the turbidity uniform, and then the absorbance at 600 nm was measured. The medium was diluted with a medium such that the absorbance (600 nm) was 0.1, and this was used as a bacterial diluent.
(§10) C-mo 2G was added to the medium at final concentrations of 0.5%, 1.0%, and 2.0%. […]
(§11) 200 µL of the bacterial diluent was added to 9 mL of the medium containing the test substance, and culture was started. After culturing, the medium was well stirred to make the turbidity uniform, and then the absorbance (turbidity) at 600 nm was measured. […]

In another data set the test system is Lactobacillus iners. The data set is described as above. It is filed as cell-based, Lactobacillus iners (ATCC 55195). As to conditions: C-mo 2G at final concentrations of 0.5%, 1.0%, 2.0% in medium; 3 culture days, 37°C, 5%CO2; n = 3.
From the text: as §5, §6, §7, §8, §9, §10, §11

The test system of the next data set is Gardnerella vaginalis. The data set is described as above. The format is cell-based, Gardnerella vaginalis (ATCC 14018). As to conditions: C-mo 2G at final concentrations of 0.5%, 1.0%, 2.0% in medium; 3 culture days, 37°C, 5%CO2; n = 3; effect concentration dependent.
From the text: as §5, §6, §7, §8, §9, §10, §11

A further data set concerns Atopobium vaginae. The description is as above. It is filed as cell-based, Atopobium vaginae (ATCC BAA-55). As to conditions: C-mo 2G at final concentrations of 0.5%, 1.0%, 2.0% in medium; 2 culture days, 37°C, anaerobic; n = 3; effect concentration dependent.
From the text: as §5, §6, §7, §8
An experiment was performed using Atopobium vaginae as a representative bacterium of the genus Atopobium.
Each bacterium in which a frozen stock (15% (vol/vol) glycerin was added to the medium) was inoculated into 9 mL of the medium, and culture was started. After culturing until reaching the logarithmic growth phase, the medium was well stirred to make the turbidity uniform, and then the absorbance at 600 nm was measured. The medium was diluted with a medium such that the absorbance (600 nm) was 0.1, and this was used as a bacterial diluent. […]
as §11

Data set [6] is described as follows: Primary skin irritation test. The format is in vivo. The following applies: rabbit.
The nature of data set [7]: Repeated skin irritation test. As to conditions: in vivo.
Data set [8] is described as follows: Skin sensitization test (intracutaneous Maximization method). It is filed as in vivo. As to conditions: guinea pig intracutaneous Maximization method.
A short description of a further data set: Phototoxicity test. The following applies: guinea pig. It is filed as in vivo.
A further data set can be described thus: Photosensitization test. As to conditions: in vivo.
The nature of the next data set: Eye irritation test. As to conditions: rabbit. It is filed as in vivo.
The nature of data set [9]: Mutagenicity test (in vitro).
The next data set is described as follows: Human patch test. The format is in vivo.
The next data set can be described thus: Water solubility. It is filed as physicochemical.

With α-D-glucopyranosylglycerol, in [1], the skin irritation result is “no skin irritation”. Also, the “antimicrobial activity against Escherichia coli” value in the data set with Escherichia coli is listed as “antimicrobial activity”. In the data set with Staphylococcus aureus [2], the “antimicrobial activity against Staphylococcus aureus” value was “antimicrobial activity”. For the same molecule, in the data set on Pseudomonas aeruginosa, the “antimicrobial activity against Pseudomonas aeruginosa” value was “antimicrobial activity”. Moreover, the “antimicrobial activity against Pseudomonas cepacia” value in the data set on Pseudomonas cepacia is given as “antimicrobial activity”. For the same molecule, the “antimicrobial activity against Staphylococcus epidermidis” value in [3] is recorded as “antimicrobial activity”. Besides, in data set [4], the “antimicrobial activity against Corynebacterium minutissimum” value is reported as “antimicrobial activity”.

On to `OCC(O)CO` [Glycerin, glycerin, reference compound], for which, in the data set on Propionibacterium acnes, the “growth inhibition zone around the paper disc, Propionibacterium acnes” value is on record as “same result as glyceryl glucoside”. The “growth inhibition zone around the paper disc, Streptococcus mutans” value with Streptococcus mutans is listed as “same result as glyceryl glucoside”. The “growth inhibition zone around the paper disc, Staphylococcus aureus” value in the data set on Staphylococcus aureus [5] is given as “same result as glyceryl glucoside”.

Take glyceryl glucoside: the “proliferation of Lactobacillus crispatus (number of bacteria, absorbance 600 nm) relative to control” value with Lactobacillus crispatus was “little change in the number”. In the data set with Lactobacillus iners, the “proliferation of Lactobacillus iners (number of bacteria, absorbance 600 nm) relative to control” value was “increased”. Also, the “proliferation of Gardnerella vaginalis (absorbance 600 nm) relative to control” value in the data set with Gardnerella vaginalis is on record as “significantly inhibited”. Moreover, the “proliferation of Atopobium vaginae (absorbance 600 nm) relative to control” value with Atopobium vaginae is recorded as “significantly inhibited”. In addition, the “growth inhibition zone around the paper disc, Propionibacterium acnes” value in the data set with Propionibacterium acnes is given as “no growth inhibition zone”. Besides, the “growth inhibition zone around the paper disc, Streptococcus mutans” value with Streptococcus mutans is on record as “no growth inhibition zone”. Moreover, the “growth inhibition zone around the paper disc, Staphylococcus aureus” value with Staphylococcus aureus [5] is “no growth inhibition zone”. Further, in [6], the “toxicity in primary skin irritation test” value is “no toxicity”. The “toxicity in repeated skin irritation test” value in data set [7] is listed as “no toxicity”. For the same molecule, the “toxicity in skin sensitization test” value in [8] is reported as “no toxicity”. The “toxicity in phototoxicity test” value in “Phototoxicity test” is “no toxicity”. For the same molecule, the “toxicity in photosensitization test” value in the data set “Photosensitization test” was “no toxicity”. The “toxicity in eye irritation test” value in “Eye irritation test” was “no toxicity”. In addition, in [9], the “toxicity in mutagenicity test” value is reported as “no toxicity”. In addition, the “toxicity in human patch test” value in the data set “Human patch test” is on record as “no toxicity”. The water solubility entry in “Water solubility” is recorded as “good”.
